# Test results reported in patent US20180200315A1, “CANNABINOID AND CAFFEINE EMULSIFICATIONS” (priority 2016, published 2018).
# Assay: Emulsifier experiments with coconut oils and water (Example 2)
# Assay type: physicochemical
# Settings: tested as emulsifying agents; solid and liquid (MCT) coconut oils
# Description: Several experiments were run using several different emulsifiers and combinations of different coconut oils: solid and liquid (MCT). (Note: liquid MCT is coconut oil that has medium chain triglyceride). Guar gum, lecithin, and cyclodextrin were tested as emulsifying agents and provided good results.
substance,measurement,value
cyclodextrin,emulsification of the oil and water,good results
